Test results: ChEMBL document CHEMBL4842377, “Synthesis and biological evaluation of selective histone deacetylase 6 inhibitors as multifunctional agents against Alzheimer's disease” (Eur J Med Chem, 2021)
Active and inactive are the calls of the source. The calls are words filed in the database; no cut-off is given here.

Tests used:
[1] = target: T1, Protein deacetylase HDAC6 (Homo sapiens, UniProt Q9UBN7); test: Inhibition of human HDAC6 using fluorogenic substrate incubated for 1 hrs by fluorescence plate reader assay
T1 sequence (Q9UBN7 whole entry): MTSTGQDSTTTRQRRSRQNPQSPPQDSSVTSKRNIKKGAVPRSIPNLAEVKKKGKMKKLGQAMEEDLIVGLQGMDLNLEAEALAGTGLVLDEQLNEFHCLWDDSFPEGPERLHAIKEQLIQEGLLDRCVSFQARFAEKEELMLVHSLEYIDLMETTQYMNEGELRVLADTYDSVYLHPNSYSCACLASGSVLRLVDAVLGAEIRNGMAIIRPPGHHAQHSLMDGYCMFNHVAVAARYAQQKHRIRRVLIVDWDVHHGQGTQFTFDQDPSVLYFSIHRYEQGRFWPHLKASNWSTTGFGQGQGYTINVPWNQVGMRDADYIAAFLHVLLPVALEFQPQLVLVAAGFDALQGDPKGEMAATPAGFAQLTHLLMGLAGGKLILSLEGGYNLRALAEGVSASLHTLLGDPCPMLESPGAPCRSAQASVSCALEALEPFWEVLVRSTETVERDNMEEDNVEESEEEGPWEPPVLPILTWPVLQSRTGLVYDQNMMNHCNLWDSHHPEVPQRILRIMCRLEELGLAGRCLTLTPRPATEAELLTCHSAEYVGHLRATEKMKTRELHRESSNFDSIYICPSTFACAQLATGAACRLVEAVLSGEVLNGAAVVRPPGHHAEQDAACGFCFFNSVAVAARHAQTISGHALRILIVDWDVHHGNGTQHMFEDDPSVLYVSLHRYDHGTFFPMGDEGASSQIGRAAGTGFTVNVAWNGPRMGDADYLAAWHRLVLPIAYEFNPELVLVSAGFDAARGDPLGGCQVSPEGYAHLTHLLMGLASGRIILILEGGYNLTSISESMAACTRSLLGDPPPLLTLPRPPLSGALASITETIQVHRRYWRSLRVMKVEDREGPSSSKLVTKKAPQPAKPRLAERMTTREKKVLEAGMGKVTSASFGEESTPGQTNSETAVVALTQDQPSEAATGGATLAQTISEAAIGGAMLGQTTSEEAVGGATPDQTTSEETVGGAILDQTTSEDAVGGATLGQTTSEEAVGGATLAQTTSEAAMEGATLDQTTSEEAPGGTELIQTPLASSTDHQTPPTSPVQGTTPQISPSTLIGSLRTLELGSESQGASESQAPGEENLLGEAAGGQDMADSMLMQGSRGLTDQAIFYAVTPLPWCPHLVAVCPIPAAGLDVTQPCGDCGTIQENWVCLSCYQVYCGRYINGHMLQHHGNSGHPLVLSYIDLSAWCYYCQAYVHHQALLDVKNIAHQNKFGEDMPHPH

SH-SY5Y [2] = test: Induction of neurogenesis in human SH-SY5Y cells assessed as induction of MAP2 mRNA expression at 10 uM measured after 24 hrs by RT-PCR analysis relative to control; format: functional
SH-SY5Y [3] = test: Neuroprotective activity against Cu2+/amyloid beta (1 to 42)-induced toxicity in human SH-SY5Y cells assessed as increase in cell viability at 3 uM after 24 hrs by MTT assay (reference value: 47.2%); format: functional
Histone deacetylase 1 = Histone deacetylase 1 (Homo sapiens, UniProt Q13547); test: Inhibition of human HDAC1 using fluorogenic substrate incubated for 1 hrs by fluorescence plate reader assay
Histone deacetylase 1, sequence (Q13547 whole entry): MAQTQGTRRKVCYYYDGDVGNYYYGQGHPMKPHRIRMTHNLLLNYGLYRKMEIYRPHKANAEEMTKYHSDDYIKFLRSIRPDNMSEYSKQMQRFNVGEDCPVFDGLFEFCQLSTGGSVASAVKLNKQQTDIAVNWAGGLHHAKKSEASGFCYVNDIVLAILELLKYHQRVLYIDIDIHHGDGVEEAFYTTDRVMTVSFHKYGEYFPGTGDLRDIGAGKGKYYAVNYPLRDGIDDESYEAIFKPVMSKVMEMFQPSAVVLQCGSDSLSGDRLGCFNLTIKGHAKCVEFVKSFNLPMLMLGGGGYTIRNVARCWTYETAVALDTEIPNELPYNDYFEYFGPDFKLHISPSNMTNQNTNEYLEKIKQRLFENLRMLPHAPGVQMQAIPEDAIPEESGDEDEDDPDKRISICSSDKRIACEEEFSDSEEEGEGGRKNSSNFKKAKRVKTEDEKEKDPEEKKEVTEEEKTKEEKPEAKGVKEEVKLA

SH-SY5Y [4] = test: Induction of neurogenesis in human SH-SY5Y cells assessed as fold induction of MAP2 mRNA expression at 10 uM measured after 24 hrs by RT-PCR analysis relative to retinoic acid; format: functional
Histone deacetylase 11 = target: T2, Histone deacetylase 11 (Homo sapiens, UniProt Q96DB2); test: Inhibition of human HDAC11 using fluorogenic substrate incubated for 1 hrs by fluorescence plate reader assay
T2 sequence (Q96DB2 whole entry): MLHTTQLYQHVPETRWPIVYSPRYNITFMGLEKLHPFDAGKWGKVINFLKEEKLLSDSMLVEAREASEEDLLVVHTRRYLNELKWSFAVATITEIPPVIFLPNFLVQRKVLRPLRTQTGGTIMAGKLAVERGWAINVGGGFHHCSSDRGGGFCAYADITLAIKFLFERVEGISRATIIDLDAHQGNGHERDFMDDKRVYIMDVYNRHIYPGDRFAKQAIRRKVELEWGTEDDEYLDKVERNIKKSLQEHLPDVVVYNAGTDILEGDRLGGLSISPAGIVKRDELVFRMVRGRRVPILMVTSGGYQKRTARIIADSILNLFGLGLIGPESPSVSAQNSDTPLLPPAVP

SH-SY5Y [5] = test: Induction of neurogenesis in human SH-SY5Y cells assessed as fold induction of GAP-43 mRNA expression at 10 uM measured after 24 hrs by RT-PCR analysis relative to retinoic acid; format: functional
[6] = target: T3, Polyamine deacetylase HDAC10 (Homo sapiens, UniProt Q969S8); test: Inhibition of human HDAC10 using fluorogenic substrate incubated for 1 hrs by fluorescence plate reader assay
T3 sequence (Q969S8 whole entry): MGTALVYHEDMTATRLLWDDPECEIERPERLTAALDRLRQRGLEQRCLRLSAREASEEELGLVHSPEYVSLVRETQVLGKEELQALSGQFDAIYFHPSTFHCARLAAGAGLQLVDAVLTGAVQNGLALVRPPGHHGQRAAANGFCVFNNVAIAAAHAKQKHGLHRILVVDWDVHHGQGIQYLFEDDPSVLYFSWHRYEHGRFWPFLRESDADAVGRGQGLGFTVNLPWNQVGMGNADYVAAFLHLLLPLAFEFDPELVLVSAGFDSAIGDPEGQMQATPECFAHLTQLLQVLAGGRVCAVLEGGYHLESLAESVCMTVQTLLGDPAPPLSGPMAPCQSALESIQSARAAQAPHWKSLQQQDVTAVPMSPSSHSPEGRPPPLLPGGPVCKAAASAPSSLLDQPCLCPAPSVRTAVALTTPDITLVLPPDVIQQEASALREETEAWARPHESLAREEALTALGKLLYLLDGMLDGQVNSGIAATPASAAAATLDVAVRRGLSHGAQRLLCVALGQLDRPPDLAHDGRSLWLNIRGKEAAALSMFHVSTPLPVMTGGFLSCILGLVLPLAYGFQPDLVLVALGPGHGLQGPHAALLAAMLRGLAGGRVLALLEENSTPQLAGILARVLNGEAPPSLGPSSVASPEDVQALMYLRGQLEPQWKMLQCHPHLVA

SH-SY5Y [7] = test: Induction of neurogenesis in human SH-SY5Y cells assessed as fold induction of N-myc mRNA expression at 10 uM measured after 24 hrs by RT-PCR analysis relative to retinoic acid; format: functional
Histone deacetylase 4 = Histone deacetylase 4 (Homo sapiens, UniProt P56524); test: Inhibition of human HDAC4 using fluorogenic substrate incubated for 1 hrs by fluorescence plate reader assay
Histone deacetylase 4, sequence (P56524 whole entry): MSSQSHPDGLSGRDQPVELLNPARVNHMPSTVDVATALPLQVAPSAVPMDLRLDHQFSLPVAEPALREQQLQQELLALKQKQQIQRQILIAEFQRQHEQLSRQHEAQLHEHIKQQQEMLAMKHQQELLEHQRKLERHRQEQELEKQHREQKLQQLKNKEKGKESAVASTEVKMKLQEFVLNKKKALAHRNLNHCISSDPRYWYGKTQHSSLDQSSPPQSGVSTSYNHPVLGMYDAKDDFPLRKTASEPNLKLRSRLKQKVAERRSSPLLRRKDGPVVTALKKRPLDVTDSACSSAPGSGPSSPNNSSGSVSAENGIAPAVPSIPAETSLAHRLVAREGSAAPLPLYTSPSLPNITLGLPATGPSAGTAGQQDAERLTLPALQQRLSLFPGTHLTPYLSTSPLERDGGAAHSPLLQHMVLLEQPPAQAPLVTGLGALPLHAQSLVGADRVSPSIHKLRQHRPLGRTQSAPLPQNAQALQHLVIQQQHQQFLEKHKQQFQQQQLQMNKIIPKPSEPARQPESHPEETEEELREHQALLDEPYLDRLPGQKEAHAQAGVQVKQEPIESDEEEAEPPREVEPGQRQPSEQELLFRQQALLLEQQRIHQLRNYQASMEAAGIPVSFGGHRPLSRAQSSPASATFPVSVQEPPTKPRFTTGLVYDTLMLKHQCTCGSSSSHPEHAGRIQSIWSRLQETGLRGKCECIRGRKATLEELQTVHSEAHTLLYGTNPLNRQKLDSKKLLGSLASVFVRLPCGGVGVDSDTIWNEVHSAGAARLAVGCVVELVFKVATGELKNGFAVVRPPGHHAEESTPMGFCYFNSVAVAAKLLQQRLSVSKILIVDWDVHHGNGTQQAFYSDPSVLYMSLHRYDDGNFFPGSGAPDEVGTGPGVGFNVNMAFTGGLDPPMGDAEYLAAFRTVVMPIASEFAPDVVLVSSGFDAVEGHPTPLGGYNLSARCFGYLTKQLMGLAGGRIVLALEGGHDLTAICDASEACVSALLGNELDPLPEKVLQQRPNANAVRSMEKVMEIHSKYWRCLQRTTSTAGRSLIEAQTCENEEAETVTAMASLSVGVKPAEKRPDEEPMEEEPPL

Histone deacetylase 2 = Histone deacetylase 2 (Homo sapiens, UniProt Q92769); test: Inhibition of human HDAC2 using fluorogenic substrate incubated for 1 hrs by fluorescence plate reader assay
Histone deacetylase 2, sequence (Q92769 whole entry): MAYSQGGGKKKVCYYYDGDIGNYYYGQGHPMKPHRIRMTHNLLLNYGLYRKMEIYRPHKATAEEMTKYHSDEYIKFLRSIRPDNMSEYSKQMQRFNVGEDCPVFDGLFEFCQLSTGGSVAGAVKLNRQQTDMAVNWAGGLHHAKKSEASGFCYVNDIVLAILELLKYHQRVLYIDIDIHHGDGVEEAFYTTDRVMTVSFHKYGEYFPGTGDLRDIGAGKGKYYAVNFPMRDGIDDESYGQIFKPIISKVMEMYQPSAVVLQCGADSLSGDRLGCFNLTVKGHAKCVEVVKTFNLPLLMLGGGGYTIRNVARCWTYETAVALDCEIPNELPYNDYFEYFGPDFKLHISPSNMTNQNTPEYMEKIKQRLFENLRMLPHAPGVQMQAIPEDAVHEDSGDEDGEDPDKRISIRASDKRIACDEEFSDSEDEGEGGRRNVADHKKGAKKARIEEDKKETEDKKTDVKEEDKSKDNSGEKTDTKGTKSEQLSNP

SH-SY5Y [8] = test: Induction of neurogenesis in human SH-SY5Y cells assessed as induction of GAP-43 mRNA expression at 10 uM measured after 24 hrs by RT-PCR analysis relative to control; format: functional
Histone deacetylase 8 = target: T4, Histone deacetylase 8 (Homo sapiens, UniProt Q9BY41); test: Inhibition of human HDAC8 using fluorogenic substrate incubated for 1 hrs by fluorescence plate reader assay
T4 sequence (Q9BY41 whole entry): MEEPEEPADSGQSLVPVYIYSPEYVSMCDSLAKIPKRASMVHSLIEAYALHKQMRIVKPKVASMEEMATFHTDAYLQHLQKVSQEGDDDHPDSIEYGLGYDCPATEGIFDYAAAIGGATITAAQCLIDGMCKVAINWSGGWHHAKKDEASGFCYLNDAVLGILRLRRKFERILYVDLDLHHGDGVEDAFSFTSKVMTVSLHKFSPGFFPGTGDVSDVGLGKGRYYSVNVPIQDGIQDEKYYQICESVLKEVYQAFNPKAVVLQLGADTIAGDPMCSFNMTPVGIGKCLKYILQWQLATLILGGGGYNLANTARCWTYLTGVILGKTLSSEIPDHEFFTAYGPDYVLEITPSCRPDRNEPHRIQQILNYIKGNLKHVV

SH-SY5Y [9] = test: Neuroprotective activity against amyloid beta (1 to 42)-induced cytotoxicity in human SH-SY5Y cells assessed as increase in cell viability at 3 uM after 24 hrs by MTT assay (reference value: 60.4%); format: functional
SH-SY5Y [10] = test: Cytotoxicity against human SH-SY5Y cells assessed as cell viability incubated for 24 hrs by MTT assay; format: cell-based
SH-SY5Y [11] = test: Induction of neurogenesis in human SH-SY5Y cells assessed as induction of N-myc mRNA expression at 10 uM measured after 24 hrs by RT-PCR analysis relative to control; format: functional
[12] = Disaggregation of Cu2+ induced amyloid beta (1 to 42 residues) (unknown origin) aggregation measuring reduction in fluorescence intensity at 20 uM after 24 hrs by thioflavin-T fluorescence method relative to control; set-up: scale not given: the % may be the effect or the level left
[13] = Inhibition of Cu2+ induced amyloid beta (1 to 42 residues) (unknown origin) aggregation by measuring reduction in fluorescence intensity at 20 uM after 24 hrs by thioflavin-T fluorescence method relative to control
SH-SY5Y [14] = test: Induction of neurite outgrowth in human SH-SY5Y cells at 10 uM incubated for 3 days by inverted microscopy; format: functional, cell-based; settings: time 3.0 day
[15] = target: T5, Protein deacetylase HDAC6 (Homo sapiens) (UniProt Q9UBN7); test: Inhibition of HDAC6 in human SH-SY5Y cells assessed as increase in acetylated histone level measured after 24 hrs by Western blot analysis; format: cell-based
T5 sequence (whole entry): T1 sequence (Q9UBN7 whole entry)

[16] = target: T5, Protein deacetylase HDAC6 (Homo sapiens); test: Inhibition of HDAC6 in human SH-SY5Y cells assessed as increase in acetylated alpha tubulin level measured after 24 hrs by Western blot analysis; format: cell-based; settings: dose 0.25-1 µM
Homo sapiens [17] = species: Homo sapiens; test: Selectivity ratio of IC50 for human HDAC6 to IC50 for human HDAC10
Homo sapiens [18] = species: Homo sapiens; test: Selectivity ratio of IC50 for human HDAC6 to IC50 for human HDAC11
Homo sapiens [19] = species: Homo sapiens; test: Selectivity ratio of IC50 for human HDAC6 to IC50 for human HDAC8
Homo sapiens [20] = species: Homo sapiens; test: Selectivity ratio of IC50 for human HDAC6 to IC50 for human HDAC1
Homo sapiens [21] = species: Homo sapiens; test: Selectivity ratio of IC50 for human HDAC6 to IC50 for human HDAC4
[22] = target: T5, Protein deacetylase HDAC6 (Homo sapiens); test: Inhibition of HDAC6 in human SH-SY5Y cells assessed as reduction in tau phosphorylation at Ser396 residue by Western blot analysis; format: cell-based
Homo sapiens [23] = species: Homo sapiens; test: Selectivity ratio of IC50 for human HDAC6 to IC50 for human HDAC2
[24] = target: T5, Protein deacetylase HDAC6 (Homo sapiens); test: Inhibition of HDAC6 in human SH-SY5Y cells assessed as reduction in tau phosphorylation at Ser396 residue at 20 uM by Western blot analysis; format: cell-based

## CNC(=O)Cn1cc(CN2c3ccccc3Sc3ccccc32)cn1
[1]
  IC50: > 1000 nM

## Cc1ccc2c(c1)c1c(n2Cc2ccc(C(=O)NO)cn2)CCN(C)C1
[1]
  IC50: 83 nM

## Cl.O=C(NO)c1ccc(CN2c3ccccc3Sc3ccccc32)nc1
SH-SY5Y [2]
  Activity: 4.79
[1]
  IC50: 2.54 nM
SH-SY5Y [3]
  Activity: 82%
Histone deacetylase 1
  IC50: 743 nM
SH-SY5Y [4]
  fold change (FC): 2
Histone deacetylase 11
  IC50: 4300 nM
SH-SY5Y [5]
  fold change (FC): 2
[6]
  IC50: 8630 nM
SH-SY5Y [7]
  fold change (FC): 2
Histone deacetylase 4
  IC50: 5630 nM
Histone deacetylase 2
  IC50: 1960 nM
SH-SY5Y [8]
  Activity: 5.71
Histone deacetylase 8
  IC50: 6120 nM
SH-SY5Y [9]
  Activity: 76.3%
SH-SY5Y [10]
  IC50: 115000 nM
SH-SY5Y [11]
  Activity: 6.28

## Oc1c(I)cc(Cl)c2cccnc12 [CLIOQUINOL]
[12]
  Activity: Active
SH-SY5Y [3]
  Activity: 86.2%
[13]
  inhibition: 38.9%

## O=C(Cn1cc(CN2c3ccccc3Sc3ccccc32)cn1)NO
[1]
  IC50: > 1000 nM

## COc1ccc2c(c1)c1c(n2Cc2ccc(C(=O)NO)cn2)CCN(C)C1
[1]
  IC50: 53 nM

## O=C(NO)c1ccc(CN2c3ccccc3Sc3ccccc32)nc1 [listing 1 of 2 here]
SH-SY5Y [14]
  Activity: Active
[15]
  inhibition: Active
[12]
  Activity: 40%
[16]
  inhibition: Dose-Dependent Effect
Homo sapiens [17]
  Selectivity ratio: 3400
Homo sapiens [18]
  Selectivity ratio: 1690
Homo sapiens [19]
  Selectivity ratio: 2410
Homo sapiens [20]
  Selectivity ratio: 292
Homo sapiens [21]
  Selectivity ratio: 2220
[22]
  inhibition: Dose-Dependent Effect
Homo sapiens [23]
  Selectivity ratio: 772
[24]
  inhibition: 50%

## O=C(NO)c1ccc(CN2c3ccccc3Sc3ccccc32)nc1 [listing 2 of 2 here]
[1]
  IC50: 11 nM

## CCNC(=O)c1ccc(CN2c3ccccc3Sc3ccccc32)nc1
[1]
  IC50: > 1000 nM

## COc1cc(/C=C/C(=O)CC(=O)/C=C/c2ccc(O)c(OC)c2)ccc1O [CURCUMIN]
SH-SY5Y [9]
  Activity: 74.6%

## CCNC(=O)Cn1cc(CN2c3ccccc3Sc3ccccc32)cn1
[1]
  IC50: > 1000 nM

## O=C(/C=C/c1ccc(CN2c3ccccc3Sc3ccccc32)cc1)NO
[1]
  IC50: 463 nM

## CC1=C(/C=C/C(C)=C/C=C/C(C)=C/C(=O)O)C(C)(C)CCC1 [TRETINOIN]
SH-SY5Y [2]
  Activity: 2.13
SH-SY5Y [8]
  Activity: 2.07
SH-SY5Y [11]
  Activity: 2.3

## O=C(CCc1ccc(CN2c3ccccc3Sc3ccccc32)cc1)NO
[1]
  IC50: 343 nM

## CN(Cc1ccc(C(=O)NO)cn1)C12CC3C[C@@](C)(C1)C[C@](C)(C3)C2
[1]
  IC50: 835 nM

## C[C@]12CC3CC(NCc4ccc(C(=O)NO)cn4)(C1)C[C@@](C)(C3)C2
[1]
  IC50: 537 nM

## CNC(=O)c1ccc(CN2c3ccccc3Sc3ccccc32)nc1
[1]
  IC50: > 1000 nM

## O=C(NO)c1coc(CN2c3ccccc3Sc3ccccc32)n1
[1]
  IC50: 884 nM

## CNC(=O)c1ccc(CN(C)C23CC4C[C@@](C)(C2)C[C@](C)(C4)C3)nc1
[1]
  IC50: > 1000 nM
